Measured values published in PMC8292346, “Dysfunction of the key ferroptosis-surveilling systems hypersensitizes mice to tubular necrosis during acute kidney injury” (Nature Communications, 2021).
Several values for one entry are separate records, joined by “and”; a condition that tells them apart may be missing. Equal values may be shown once.

Columns and labels:
HT29 cells = assay: TSZ-induced necroptosis, 7-AAD/annexin V flow cytometry; format: cell-based, human; settings: Nec-1f 10 µM
Method: (§1) To induce necroptosis in a human cell line, HT29 cells were stimulated at the indicated time points with 20 ng/ml human TNFα (Biolegend), 1 μM SMAC-mimetics (Birinapant, Chemietek), and 20 μM zVAD-fmk (Selleckchem, herein referred to as zVAD). For the induction of necroptosis in NIH3T3 cells, cells were incubated with 20 ng/ml TNF-α and 20 μM zVAD for indicated time points. […] Cells were seeded in six-well plates or petri dishes. […] After indicated time points, cells were collected and prepared for flow cytometry, immunoblotting, and/or LDH release assays.
(§2) Cells were harvested and the pellets were washed twice in PBS and stained with 5 μl of 7-AAD (BD Biosciences) and 5 μl of annexin-V-FITC (BD Biosciences) added to 100 μl annexin-V binding buffer (BD Biosciences). After 15 min, cells were recorded on the LSRII with the FACS Diva 6.1.1 software (BD Biosciences) and subsequently analyzed with the FlowJo v10 software (Tree Star).

MLKL = assay: Western blot of pMLKL (S358) in TSZ-treated HT29 cells; format: cell-based, human; settings: Nec-1s 10 µM, Fer-1 1 µM, Nec-1f 10 µM
Method: as §1
(§3) Cells were lysed in ice-cold 10 mM Tris-HCl, pH 7.5, 50 mM NaCl, 1% Triton X-100, 30 mM sodium pyrophosphate, 50 mM NaF, 100 μM Na3VO4, 2 μM ZnCl2, and 1 mM phenylmethylsulfonyl fluoride (PMSF, modified Frackelton buffer) for 30 min on ice. Insoluble material was removed by centrifugation (14 000×g, 30 min, 4 °C). Protein concentration was determined using a commercial Bradford assay kit according to the manufacturer’s instructions (Thermo Fisher). Equal amounts of protein (typically 30 μg per lane) were resolved on a 4%−15% gradient SDS/PAGE gel and transferred to a PVDF membrane (BIO-RAD). Primary antibody incubation was performed for anti-pS166-RIPK1 (Cell Signaling, Cat# 65746, 1:1000 dilution), anti-pS358-MLKL, (Abcam, ab187091, 1:1000 dilution), anti-MLKL (Genetex, GTX107538, 1:1000 dilution) and anti-β-Actin (Cell Signaling, Cat# 3700S, 1:1000 dilution). Secondary antibodies (anti-mouse, HRP-linked antibody, Cell Signaling, Cat# 7076S; anti-rabbit, HRP-linked antibody, Cell Signaling, Cat# 7074S) were applied at concentrations of 1:5.000 (also see Supplementary Table 1 for details). Proteins were then visualized by enhanced chemiluminescence (ECL; Amersham Biosciences).

RIPK1 = assay: Western blot of pRIPK1 (S166) in TSZ-treated HT29 cells; format: cell-based, human; settings: Nec-1s 10 µM, Fer-1 1 µM, Nec-1f 10 µM
Method: as §1, §3

HT1080 cells [1] = assay: Ferroptosis inducers (FINs)/ferroptocide, 7-AAD/annexin V flow cytometry; format: cell-based, human; settings: Nec-1s 30 µM, Nec-1f 30 µM; for double-negative events (7-AAD/annexin V): alone (DMSO) or with Fer-1 1 µM
NIH3T3 cells [2] = assay: as above; format: cell-based, murine; settings: alone (DMSO) or with Fer-1 1 µM, Nec-1s 30 µM, Nec-1f 30 µM
Method: as §1, §2

NIH3T3 cells [3] = assay: Simultaneous ferroptosis and necroptosis (RSL3 plus TZ), 7-AAD/annexin V flow cytometry; format: cell-based, murine; settings: NIH3T3, 16 h
Method: as §1, §2

HT1080 cells [4] = assay: CellTiter-Glo luminescent cell viability assay (ATP), dose-response; format: cell-based, human
Method: Cells were plated in an opaque-walled 96-well plate and treatment with ferroptosis inducers and/or ferroptosis inhibitors was initiated 24 h later. […] Here, the reaction agent was directly added to the wells, mixed on an orbital shaker for 2 min, and then incubated at room temperature for 10 min. The luminescence was detected using a Promega GloMax® instrument.

[5] = tested on: Mouse cortical tubule cells (MCT); assay: FINs/ferroptocide, 7-AAD/annexin V flow cytometry; format: cell-based; settings: MCT, alone (DMSO) or with Fer-1 1 µM, Nec-1s 30 µM, Nec-1f 30 µM
Method: as §1, §2

CD10-135 cells = assay: FINs/ferroptocide, LDH release assay; format: cell-based, human; parameters: LDH release: unit not given here; settings: Nec-1f 30 µM
NIH3T3 cells [6] = assay: Ferroptosis inducers (FINs)/ferroptocide, 7-AAD/annexin V flow cytometry; format: cell-based, murine; settings: individual replicates
C57Bl/6 N mice = assay: Bilateral kidney ischemia-reperfusion injury, severe model (38 min ischemia), survival; settings: single dose 2 mg/kg body weight before reperfusion

CN1C(=O)NC(Cc2c[nH]c3c(Cl)cccc23)C1=O (stereo not drawn) [Nec-1s, necrostatin-1s]
7-AAD/annexin V flow cytometry, source data of bar graph Fig2e (HT29 cells; HT29, TSZ (TNFα 20 ng/ml, birinapant 1 µM, zVAD-fmk 20 µM) 16 h): 77% and 78.7% and 91.4% and 88.7%
Protection against TSZ-induced necroptosis (7-AAD/annexin V, words) (HT29 cells; HT29, TSZ): maintained double negativity
Phosphorylation of MLKL (pS358), western blot (MLKL): comparable between Nec-1s and Nec-1f
Phosphorylation of RIPK1 at S166, western blot (RIPK1): prevented phosphorylation at S166 in RIPK1
double-negative events (7-AAD/annexin V) (HT1080 cells [1]; HT1080, 1.13 µM RSL3 6 h): 45.5% and 30.5% and 56.9% and 58.4%
double-negative events (7-AAD/annexin V) (HT1080 cells [1]; HT1080, 10 µM FIN56 24 h): 88.1% and 85.1% and 82.1%
double-negative events (7-AAD/annexin V) (HT1080 cells [1]; HT1080, 10 µM ferroptocide 24 h): 42.7% and 26.5%
Inhibition of cell death induction by FINs/ferroptocide (HT1080 cells [1]; HT1080, Fer-1 1 µM): but not by Nec-1s
double-negative events (7-AAD/annexin V) (NIH3T3 cells [2]; NIH3T3, 5 µM erastin 24 h): 10.2% and 2.01% and 4.47% and 2.99%
double-negative events (7-AAD/annexin V) (NIH3T3 cells [2]; NIH3T3, 10 µM FIN56 24 h): 88.9% and 92.9% and 90.2%
double-negative events (7-AAD/annexin V) (NIH3T3 cells [2]; NIH3T3, 10 µM FINO2 24 h): 6.67% and 1.36% and 2.97% and 1.72% and 7.65% and 9.33%
Rescue from necrosis induced by RSL3 plus TZ (NIH3T3 cells [3]): fail to rescue
ATP luminescence (CellTiterGlo) (HT1080 cells [4]; HT1080 + Erastin, inhibitor concentration 0.01 (unit not given)): 6.2776%
ATP luminescence (CellTiterGlo) (HT1080 cells [4]; HT1080 + Erastin, inhibitor concentration 0.1 (unit not given)): 6.426%
ATP luminescence (CellTiterGlo) (HT1080 cells [4]; HT1080 + Erastin, inhibitor concentration 1 (unit not given)): 6.611%
ATP luminescence (CellTiterGlo) (HT1080 cells [4]; HT1080 + Erastin, inhibitor concentration 10 (unit not given)): 6.739%
ATP luminescence (CellTiterGlo) (HT1080 cells [4]; HT1080 + Erastin, inhibitor concentration 30 (unit not given)): 13.0792%
ATP luminescence (CellTiterGlo) (HT1080 cells [4]; HT1080 + Ferroptocide, inhibitor concentration 0.01 (unit not given)): 2.171% and 0.348%
ATP luminescence (CellTiterGlo) (HT1080 cells [4]; HT1080 + Ferroptocide, inhibitor concentration 0.1 (unit not given)): 7.287% and 1.309%
ATP luminescence (CellTiterGlo) (HT1080 cells [4]; HT1080 + RSL3, inhibitor concentration 0.01 (unit not given)): 48.9951% and 58.0398%
ATP luminescence (CellTiterGlo) (HT1080 cells [4]; HT1080 + RSL3, inhibitor concentration 0.1 (unit not given)): 48.7049% and 62.3771%
ATP luminescence (CellTiterGlo) (HT1080 cells [4]; HT1080 + RSL3, inhibitor concentration 1 (unit not given)): 60.6314% and 81.5005%
ATP luminescence (CellTiterGlo) (HT1080 cells [4]; HT1080 + RSL3, inhibitor concentration 10 (unit not given)): 61.8212% and 84.0786%
double-negative events (7-AAD/annexin V) ([5]; 5 µM erastin 24 h): 60.5% and 85.4% and 84.9% and 77.6%
double-negative events (7-AAD/annexin V) ([5]; 10 µM FIN56 24 h): 93.3% and 88% and 89.2%
LDH release (CD10-135 cells; CD10-135, FIN56 alone (FIN) or with Fer-1, Nec-1s): 86.05 and 52.2984 and 63.7092
LDH release (CD10-135 cells; CD10-135, FINO2 alone (FIN) or with Fer-1, Nec-1s): 71.57 and 72.5571 and 70.4933
LDH release (CD10-135 cells; CD10-135, RSL3 alone (FIN) or with Fer-1, Nec-1s): 64.62 and 54.5823
LDH release (CD10-135 cells; CD10-135, erastin alone (FIN) or with Fer-1, Nec-1s): 93.98 and 95.3511 and 88.9965
LDH release (CD10-135 cells; CD10-135, ferroptocide alone (FIN) or with Fer-1, Nec-1s): 100 and 93.4978
cells in 7-AAD/annexin V flow cytometry (FigS9b) (NIH3T3 cells [6]; Erastin-induced ferroptosis): 17.0% and 14.0% and 10.0%
cells in 7-AAD/annexin V flow cytometry (FigS9b) (NIH3T3 cells [6]; FIN56-induced ferroptosis): 57.0% and 34.0%
cells in 7-AAD/annexin V flow cytometry (FigS9b) (NIH3T3 cells [6]; FINO2-induced ferroptosis): 63.0% and 21.0%
cells in 7-AAD/annexin V flow cytometry (FigS9b) (NIH3T3 cells [6]; Ferroptocide-induced cell death): 80.0% and 5.0%
cells in 7-AAD/annexin V flow cytometry (FigS9b) (NIH3T3 cells [6]; RSL3-induced ferroptosis): 71.0% and 41.0%
Survival after severe renal IRI vs vehicle (Kaplan-Meier, words) (C57Bl/6 N mice): not statistically significant
